# Key:
# [1] = system: gastric cancer cell NCI-N87; test: Subcutaneous xenograft of gastric cancer cell NCI-N87 in nude mice (Experimental example 2); assay type: in vivo; details: 190 μmol/kg i.v.
# Description: (§2) This experimental example was used for the evaluation of the effectiveness of the compounds of the present invention in inhibiting the proliferation of a subcutaneous xenograft of human tumor cells via various routes of administration.
# (§3) Gastric cancer cell NCI-N87 and colorectal cancer cell HCT-116 were cultured as a monolayer in vitro, and the culture conditions were RPMI-1640 culture medium supplemented with 10% heat inactivated Fetal Bovine Serum, and incubation in an incubator at 37° C. and 5% CO2. The cells were subcultured by treatment with trypsin-EDTA digestion.
# (§4) The tumor cells were respectively inoculated into BALB/c nude mice (SPF grade, female, 16-18 g per mouse, about 6 to 8 weeks old, Beijing Vital River Laboratory Animal Technology Co., Ltd.).
# (§5) Each nude mouse was inoculated with about 2.5×10^6 HCT-116 tumor cells or about 3×10^6 NCI-N87 tumor cells (suspended in 0.1 ml PBS) subcutaneously into the underarm of the right flank. After the inoculated tumor reached a size in the range of about 100-200 mm^3, nude mice bearing a tumor that is too small (smaller than 100 mm^3) or too big (bigger than 200 mm^3) were removed from the study, and the remaining ones were randomized into groups.
# (§6) Sulfobutyl ether-β-cyclodextrin (SE-β-CD) was formulated with physiological saline to form a 10% solution, which was then filtered through a 0.22 μm sterile filter for later use.
# (§7) An appropriate amount of the test compound was weighted, and added in DMSO. The resultant solution was vortexed to uniformity, and the 10% solution of SE-β-CD was added according to the desired concentration. The solution was vortexed to uniformity, and the final concentration of DMSO was adjusted to 5%. A gemcitabine injection (a positive control) was directly diluted to the desired concentration with physiological saline. A 10% solution of SE-β-CD containing 5% DMSO was prepared as a vehicle control.
# (§8) Mice bearing a tumor having a volume of about 100-200 mm^3 were selected, and randomized into 5 groups (8 mice per group). The dosing volume was 10 mL/kg, and the administration (intravenous administration (i.v.) or oral administration (p.o.)) was performed twice a week for 3 weeks. The tumor volume and body weight were measured twice a week after the administration, and the mortality of animals was observed every day.
# (§9) The diameter of a tumor was measured, and the tumor volume was calculated according to the following formula: V=0.5a×b^2, wherein a and b respectively represent the major and minor diameters of a tumor. The anti-tumor effect was evaluated by the tumor growth inhibition (TGI) (%). TGI (%)=[1−(VT-end−VT-start)/(VC-end−VC-start)]*100%
# (§10) The body weight of an animal was measured twice a week.
# [2] = system: human pancreatic cancer cell BxPC-3; test: Subcutaneous xenograft of human pancreatic cancer cell BxPC-3 in a nude mouse (Experimental example 3); assay type: in vivo; details: once every 3 days, 4 times
# Description: According to methods similar to those in sections 1 to 2 in Experimental example 2, pancreatic cancer cell BxPC-3 was cultured as a monolayer in vitro, and inoculated, and the animals were randomized into groups.
# An appropriate amount of the test compound was weighted out, and added in DMSO. The 10% solution of SE-β-CD was then added according to the desired concentration, and the final concentration of DMSO was adjusted to 2.5%. A gemcitabine injection (a positive control) was diluted to the desired concentration with physiological saline. A 10% solution of SE-β-CD containing 2.5% DMSO was prepared as a vehicle control.
# Mice bearing a tumor having a volume of 100-200 mm^3 were selected, and randomized into 14 groups (7 mice per group). The dosing volume was 20 mL/kg, and the administration (intravenous administration (i.v.)) was performed once every 3 days, for 4 times in total.
# (§1) For statistical calculations of the test indexes, please refer to Experimental example 2.
# [3] = system: human pancreatic cancer cell BxPC-3; test: Subcutaneous xenograft of human pancreatic cancer cell BxPC-3 in a nude mouse (Experimental example 4); assay type: in vivo
# Description: According to methods similar to those in sections 1 to 3 in Experimental example 2, pancreatic cancer cell BxPC-3 was cultured as a monolayer in vitro, and inoculated; the animals were randomized into groups; and samples were prepared.
# Mice bearing a tumor having a volume of 80-250 mm^3 were selected, and randomized into 6 groups (8 mice per group). The dosing volume was 10 mL/kg.
# as §1
# The test results obtained by administrating (intravenous administration (i.v.) or oral administration (p.o.)) once a week for 3 weeks are shown in table 7-2.
# [4] = system: human pancreatic cancer cell Capan-1; test: Subcutaneous xenograft of human pancreatic cancer cell Capan-1 in a nude mouse (Experimental example 5); assay type: in vivo; details: once every 3 days, 6 times
# Description: According to methods similar to those in sections 1 to 2 in Experimental example 2, pancreatic cancer cell Capan-1 was cultured as a monolayer in vitro, and inoculated, and the animals were randomized into groups.
# Samples were prepared as described in Experimental example 2.
# Mice bearing a tumor having a volume of 100-200 mm^3 were selected, and randomized into 7 groups (7 mice per group).
# as §1
# [5] = system: human pancreatic cancer cell PANC-1; test: Subcutaneous xenograft of human pancreatic cancer cell PANC-1 in a nude mouse (Experimental example 6); assay type: in vivo; details: 0.06 mmol/kg i.v., once every 3 days, 6 times
# Description: This test was performed according to experimental example 5.
# Mice bearing a tumor having a volume of 100-200 mm^3 were selected, and randomized into 4 groups (6 mice per group).
# [6] = mice, significant dose administered intravenously; cited from earlier work
# [7] = system: colorectal cancer cell HCT-116; test: Subcutaneous xenograft of colorectal cancer cell HCT-116 in nude mice (Experimental example 2); details: 190 μmol/kg i.v.
# Description: as §2, §3, §4, §5, §6, §7, §8, §9, §10
compound,measurement,setting,value
"Nc1ccn([C@@H]2O[C@H](CO)[C@@H](O)C2(F)F)c(=O)n1 [Gemcitabine injection, Gemcitabine, reference compound]",TGI (%),[1]; twice a week for 3 weeks,107%
same,"Tumor regression, CR (complete tumor regression)",[1]; animals out of 8,"2/8 CR,"
same,"Tumor regression, PR (partial tumor regression)",[1]; animals out of 8,6/8 PR
same,TGI (%),[2]; 0.04 mmol/kg i.v.,−2.2%
same,TGI (%),[2]; 0.12 mmol/kg i.v.,28.9%
same,TGI (%),[2]; 0.24 mmol/kg i.v.,45.5%
same,TGI (%),"[3]; 0.12 mmol/kg i.v., twice a week for 3 weeks",23.6%
same,TGI (%),"[3]; 0.23 mmol/kg i.v., once a week for 3 weeks",23.6%
same,TGI (%),[4]; 0.02 mmol/kg i.v.,15.4%
same,TGI (%),[4]; 0.19 mmol/kg i.v.,78.9%
same,TGI (%),[5],64.4%
same,death or gastrointestinal toxicity after intravenous dosing,[6],no death or gastrointestinal toxicity
same,Mortality,[7],0
same,TGI (%),[7]; twice a week for 3 weeks,92%
same,Tumor regression,[7]; 14 days after last administration,0

# From patent US10662214B2, “Compound of 4′-thionucleoside, as well as preparation method therefor, pharmaceutical composition thereof and application thereof” (Sichuan Kelun-Biotech Biopharmaceutical Co., Ltd., priority 2015, dated 2020)
